SMILES strings stand for the structures.

The nature of this data set: gradient 5% acetonitrile 3 min, to 50% in 2 min, to 85% in 15 min, held 3 min, 100 µL/min. Conditions: column: Zorbax Extend-C18 2.1 x 50 mm; eluents: water / acetonitrile, 0.1% formic acid. The procedure, abridged:
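Retention time was recorded from adduct peaks, which were picked computationally and each inspected manually. Pure standards ran in mixtures of ~100 molecules on HPLC coupled to a quadrupole time-of-flight mass spectrometer, in positive and negative ionization mode, through a Zorbax Extend-C18 column (2.1 × 50 mm, 1.8 μm) at 100 μL/min. Eluents were water and acetonitrile, each with 0.1% formic acid.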
For the compound `CCN1C(=O)COc2ccc(-c3noc(-c4ccc(OC)c(OC)c4)n3)cc21`, the RP-LC retention time was found to be 1020 s. `CC(C)C(NC(=O)c1ccc(CN2C(=O)C3CCCN3C(=O)c3ccccc32)cc1)c1cccs1` (stereo not given) came in with an RP-LC retention time of 857 s.

Turning to `CC(=O)Nc1ccc(N(Cc2nnc3n2CCCCC3)C(=O)Nc2cccc(Cl)c2)cc1`, the RP-LC retention time came out at 691 s. Then `O=C(c1cnn(-c2ccc([N+](=O)[O-])cc2)c1C1CCNCC1)N1CCN(c2ccccn2)CC1`, with 563 s; and `CCCn1cc(CCNC(=O)Nc2cc(C)cc(C)c2)c2cccnc21`, with 736 s. On to `CCCCN1CCN(Cc2nc(-c3ccc(N4CCCCC4)nc3)no2)CC1`, for which the RP-LC retention time came out at 602 s. Compound `Fc1cccc(-c2nc(-c3cn(-c4cccc(F)c4)nn3)no2)c1` yielded an RP-LC retention time of 1090 s. Then `Cc1cccc(NC(=O)N2CCC(N3CCN(Cc4ccccc4)C3=O)CC2)c1`, with 853 s; and `CCn1nccc1C(=O)N1CCCC1c1ccc(OC)cc1` (stereo not given), with 772 s. For `CNC(=O)c1cc2cc(Cl)ccc2[nH]1` the value was 741 s; for `CC(Cc1ccccc1)(NC(=O)CN)c1ccccc1` (stereo not given), 730 s; for `Cc1oc(-c2ccc(NC(=O)c3ccco3)cc2)nc1Cn1cccn1`, 759 s.

The compound `Cc1cccc(-c2nnc(C)c(N3CCc4ccccc4C3)n2)c1` gave an RP-LC retention time of 826 s.

Turning to `COc1cccc(NC(=O)Cn2nc(N3CCSCC3)c3ccccc3c2=O)c1`, the RP-LC retention time amounted to 908 s.

With `O=C(c1nccnc1-c1nc2ccccc2s1)N1CCc2ccccc21`, the RP-LC retention time was found to be 941 s.

Compound `Cc1cccc(S(=O)(=O)Nc2cc(-c3cn4cccc(C)c4n3)ccc2C)c1` came in with an RP-LC retention time of 695 s.

Take `CCS(=O)(=O)N1CC(=O)N(c2cccc(C)c2C)C(C)(C(=O)NC2CCCCCC2)C1` (stereo not given): the RP-LC retention time stood at 930 s. Then `COc1cccc(CC(=O)N2CCC(c3cc(N)on3)CC2)c1`, with 663 s. Then `COc1ccc(CN2C(=O)c3ccccc3C2C(=O)NCC2CCCO2)c(OC)c1` (stereo not given), with 695 s; and `Cc1cc2c(cc1S(=O)(=O)N1CCCC1C(=O)Nc1cccc(Cl)c1)OCC(=O)N2` (stereo not given), with 817 s.

`CCCC(CCC)C(=O)NCCc1c[nH]c2cc(OC)ccc12` yielded an RP-LC retention time of 886 s.

In the case of `CC(C)NC(=O)C1(c2ccc(NS(C)(=O)=O)cc2)CCCCC1`, the RP-LC retention time turned out to be 782 s. Then `O=C(c1cc(-c2ccccc2)n[nH]1)N1CCN(c2cc(-c3ccccc3)ncn2)CC1`, with 609 s; and `Cc1cc2nn(CC(=O)Nc3cccc(C(C)C)c3)c(=O)n2c(-c2ccccc2)n1`, with 955 s. For `Cc1ccc(-c2ccc(N3CCCC(C(=O)NC4CC4)C3)nn2)cc1` (stereo not given) the value was 631 s; for `CCC(=O)N1CCCCCCNC(=O)[C@@H]2CCC[C@@H]21`, 657 s; for `CCC1Oc2ccc(S(=O)(=O)N3CCC(C(=O)Nc4ccccc4C)CC3)cc2NC1=O` (stereo not given), 814 s. Consider `Cc1nc(-c2noc(-c3cccnc3)n2)cn1CC(=O)NC1CCCCC1`, for which the RP-LC retention time amounted to 668 s.

Compound `COc1ccccc1OCC(=O)NCCCS(=O)(=O)N1CCN(c2ccccc2)CC1` showed an RP-LC retention time of 796 s.

Take `CCCCn1cc(S(=O)(=O)NCc2ccccc2)c2cccnc21`: the RP-LC retention time was determined as 946 s. Regarding `COC(=O)c1ccccc1NCCO`, the RP-LC retention time worked out at 787 s. As for `COc1ccc(CCC(=O)N2CCc3c(c(C(=O)N4CCCC(C(=O)NC5CC5)C4)nn3C)C2)cc1` (stereo not given), the RP-LC retention time is 649 s.

On to `Cc1cc(C(=O)NCCc2ccc(Cl)cc2)n(-c2ccccc2)n1`, for which the RP-LC retention time is 911 s. As for `Cc1ccc(C)c(-c2cn3ccn(-c4ccc(F)cc4)c(=O)c3n2)c1`, the RP-LC retention time was 895 s. For `CNc1cc(C)nc2c(-c3ccc(Cl)cc3)cnn12` the value was 731 s. In the case of `COc1ccccc1CNC(=O)C1CCC(=O)N1S(=O)(=O)c1ccc(C)c(C)c1` (stereo not given), the RP-LC retention time was found to be 913 s. For `COc1cc(C(=O)Nc2sc3c(c2C(N)=O)CC(C)CC3)cc(OC)c1OC` (stereo not given) the value was 1020 s; for `O=C1/C(=C/c2ccccc2)CN(C(=O)/C=C/c2ccccc2)C/C1=C\c1ccccc1`, 1140 s; for `Cc1noc(C)c1S(=O)(=O)N1CCc2nc[nH]c2C1`, 570 s. For `CCn1cc(CCNC(=O)c2ccc(OC)cc2)c2cccnc21` the value was 675 s; for `O=C1CC(C(=O)N2CCN(c3ccccc3)CC2)CN1CCc1c[nH]c2ccc(F)cc12` (stereo not given), 819 s. Then `CCn1c(=O)sc2cc(S(=O)(=O)N3CCC(C(=O)Nc4cc(C)ccc4C)CC3)ccc21`, with 932 s; and `Cc1ccc(-c2noc(-c3ccccc3S(=O)(=O)N3CCCCC3)n2)cc1`, with 1210 s. With `COc1ccccc1N1CCN(C(=O)C2CCN(C(=O)C3Sc4ccccc4NC3=O)CC2)CC1` (stereo not given), the RP-LC retention time was 717 s. Then `COc1ccc(-c2nc(NC3CCCC3)c3ccccc3n2)cc1`, with 825 s. In the case of `CCn1c(CNC(=O)C2CCC2)nc2c1CN(S(=O)(=O)c1ccc(C)cc1)CC2`, the RP-LC retention time stood at 649 s.

`COc1ccc(S(=O)(=O)NCCc2cn(C)c3ncccc23)cc1Cl`: the RP-LC retention time was found to be 760 s.

Compound `O=C(NCC(F)(F)F)C1CN(C(=O)COc2ccccc2F)C1` returned an RP-LC retention time of 666 s. For `COc1cccc(CC(=O)Nc2cnn(C)c(=O)c2N2CCOCC2)c1` the value was 725 s; for `O=C(c1cccs1)N1CCN(c2ccc3nnc(-c4ccco4)n3n2)CC1`, 631 s. For `COCCn1nnnc1C1CC2(CCOCC2)C(=O)N1Cc1ccc(C(F)(F)F)cc1` (stereo not given) the value was 797 s.

The compound `O=C(Nc1ccccc1Cl)c1cc(C2CC2)n2nccc2n1` gave an RP-LC retention time of 1190 s. Consider `COc1ccc(NC(=O)Cn2cnc3c(sc4nc(-c5ccccc5)ccc43)c2=O)cc1OC`, for which the RP-LC retention time is 899 s. `Cc1cc(C(=O)N2C[C@@H](F)C[C@H]2C(=O)N2CCc3ccccc3C2)n(C)n1` yielded an RP-LC retention time of 683 s. Then `COC(=O)c1ncn2c1C(=O)N(C1CC1)C(C)(C(=O)NCc1ccccc1Cl)C2` (stereo not given), with 658 s. For `COc1ccc(C2C(C(=O)NCCN(C)C)c3ccccc3C(=O)N2C)cc1OC` (stereo not given) the value was 700 s; for `COc1cccc(CNC(=O)C2CCCN2S(=O)(=O)c2cc3c(cc2Cl)NC(=O)CO3)c1` (stereo not given), 880 s; for `Cc1cc2n(n1)CCC(=O)N2CCCC(=O)NCCN(C)C1CCCCC1`, 576 s.

For `O=C(NCCCn1c(-c2ccncc2)nc2cccnc21)Nc1ccc(Br)cc1F`, the RP-LC retention time turned out to be 718 s. Turning to `O=C(NC1CCCCCC1)C1CCN(S(=O)(=O)c2cc(C(=O)N3CCCCCC3)cs2)CC1`, the RP-LC retention time is 956 s.

The record behind these values is the METLIN SMRT retention time set (Domingo-Almenara et al. 2019).
